Like-named read-outs stand apart in the source and are kept apart here.
Tested on: Malassezia furfur
Details: inhibition of growth of the Malassezia fungus
Description: Malassezia furfur is grown in a flask containing mDixon medium (see E. Gueho, et. al. Antoninie Leeuwenhock (1996), no. 69, 337-55, which description is incorporated by reference herein). Dilutions of solubilized anti-microbial active or diluted products are then added to test tubes containing molten mDixon agar. M. furfur inoculum is added to each tube of molten agar, the tube vortexed, and the contents poured into separate sterile petri dishes. After the plates are incubated, they are observed for visible M. furfur growth. The lowest tested dilution of anti-microbial active or finished product that comprises that yields no growth is defined as the Minimal Inhibitory Concentration (MIC).

Structure (SMILES): [O-]n1ccccc1=S.[O-]n1ccccc1=S.[Zn+2] [ZPT, zinc salt of 1-hydroxy-2-pyridinethione]
- Minimum Inhibitory Concentration (MIC) (parts active per million parts product and dilution media): 5 ppm
- Minimum Inhibitory Concentration (MIC) (same MIC expressed as g active per 100 g (product + dilution solution)): 0.0005 g/100 g
